According to patent US9375004B2 (Bayer Intellectual Property GmbH, priority 2010, dated 2016):

Assay: logP by HPLC on reversed-phase column (EEC Directive 79/831 Annex V.A8)
Details: for logP: HPLC on reversed-phase column (C 18), EEC Directive 79/831 Annex V.A8

Compound	logP	chromatographic logP (reversed-phase HPLC column (C 18))
Cn1nc(C(F)F)c(C(=S)Nc2ccccc2C2CC2C2CC2)c1Cl (single isomer, unassigned) [Example 49]	3.79	
Cn1nc(C(F)F)c(C(=S)Nc2ccccc2C2CC2C2CC2)c1Cl (single isomer, unassigned) [Example 50]	3.81	
Nc1ccc(F)cc1-c1ccc(C(F)(F)F)cc1 [5-fluoro-4′-(trifluoromethyl)biphenyl-2-amine]		3.52
CC(C)CCc1cc(F)ccc1NC(=O)c1c(C(F)F)nn(C)c1F [Example 10]	3.67	
CC(C)Oc1cccc(NC(=S)c2c(C(F)F)nn(C)c2Cl)c1 [Example 171]	3.41	
CC(C)c1ccccc1NC(=O)c1c(C(F)F)nn(C)c1Cl [compound 2]	3.02	
Cn1nc(C(F)F)c(C(=O)Nc2ccccc2C(C)(C)C)c1Cl [compound 4]	3.21	
CC(C)=CCc1ccccc1NC(=O)c1c(C(F)F)nn(C)c1Cl [compound 5]	3.35	
Cc1cccc(CCC(C)(C)C)c1NC(=O)c1c(C(F)F)nn(C)c1F [compound 15]	3.85	
Cc1cccc(NC(=O)c2c(C(F)F)nn(C)c2F)c1CCC(C)(C)C [compound 16]	4.06	
Cc1ccc(CCC(C)(C)C)c(NC(=O)c2c(C(F)F)nn(C)c2F)c1 [compound 17]	4.29	
Cn1nc(C(F)F)c(C(=O)Nc2cc(Cl)ccc2CCC(C)(C)C)c1F [compound 18]	4.51	
Cn1nc(C(F)F)c(C(=O)Nc2cccc(Cl)c2SCC(F)F)c1F [compound 33]	3.53	
Cn1nc(C(F)F)c(C(=O)Nc2ccccc2SCC(F)(F)F)c1F [compound 37]	3.29	
Cn1nc(C(F)F)c(C(=O)Nc2ccccc2SCC2CC2(Cl)Cl)c1F (stereo not drawn) [compound 41]	3.27	
Cn1nc(C(F)F)c(C(=O)Nc2ccccc2SC(F)(F)C(F)(F)C(F)(F)F)c1F [compound 42]	4.25	
Cn1nc(C(F)F)c(C(=O)Nc2ccccc2Br)c1Cl [compound 44]	3.13	
Cn1nc(C(F)F)c(C(=O)Nc2cccc3c2CCCC3)c1F [compound 56]	3.08	
Cn1nc(C(F)F)c(C(=O)Nc2cccc3c2CCCC3)c1Cl [compound 57]	3.31	
Cn1nc(C(F)F)c(C(=O)Nc2cccc3c2OCCO3)c1Cl [compound 58]	2.70	
Cn1nc(C(F)F)c(C(=O)Nc2cccc3c2OCCO3)c1F [compound 59]	2.44	
Cc1ccccc1-c1ccccc1NC(=O)c1c(C(F)F)nn(C)c1Cl [compound 76]	4.14	
Cc1cc(C)cc(-c2ccccc2NC(=O)c2c(C(F)F)nn(C)c2F)c1 [compound 81]	4.11	
Cc1cc(C)cc(-c2ccccc2NC(=O)c2c(C(F)F)nn(C)c2Cl)c1 [compound 82]	4.51	
Cn1nc(C(F)F)c(C(=O)Nc2ccccc2-c2cc(F)cc(F)c2)c1F [compound 91]	3.31	

Compound	logP	chromatographic logP (reversed-phase HPLC column (C 18))
CC(C)c1cccc(-c2ccccc2NC(=O)c2c(C(F)F)nn(C)c2F)c1 [compound 93]	4.30	
CC(C)c1ccc(-c2ccccc2NC(=O)c2c(C(F)F)nn(C)c2F)cc1 [compound 96]	4.44	
CC(C)c1ccc(-c2ccccc2NC(=O)c2c(C(F)F)nn(C)c2Cl)cc1 [compound 97]	4.86	
Cn1nc(C(F)F)c(C(=O)Nc2ccccc2-c2ccc(F)c(Cl)c2)c1F [compound 102]	3.60	
Cn1nc(C(F)F)c(C(=O)Nc2ccccc2-c2ccc(F)c(Cl)c2)c1Cl [compound 103]	3.85	
CC(C)Oc1cccc(-c2ccccc2NC(=O)c2c(C(F)F)nn(C)c2F)c1 [compound 111]	3.96	
CC(C)Oc1cccc(-c2ccccc2NC(=O)c2c(C(F)F)nn(C)c2Cl)c1 [compound 112]	4.36	
CC(C)Oc1ccc(-c2ccccc2NC(=O)c2c(C(F)F)nn(C)c2F)cc1 [compound 113]	4.01	
Cn1nc(C(F)F)c(C(=O)Nc2ccccc2-c2ccc(C(F)(F)F)cc2)c1Cl [compound 120]	3.94	
Cn1nc(C(F)F)c(C(=O)Nc2ccccc2-c2cccc(Cl)c2Cl)c1F [compound 121]	3.76	
Cn1nc(C(F)F)c(C(=O)Nc2ccccc2-c2cccc(Cl)c2Cl)c1Cl [compound 122]	4.06	
Cn1nc(C(F)F)c(C(=O)Nc2ccccc2-c2ccc(Cl)cc2Cl)c1F [compound 123]	3.89	
Cn1nc(C(F)F)c(C(=O)Nc2ccccc2-c2ccc(Cl)cc2Cl)c1Cl [compound 124]	4.24	
CO/N=C(\C)c1ccc(-c2ccccc2NC(=O)c2c(C(F)F)nn(C)c2F)cc1 [compound 129]	3.78	
CC(C)COc1ccc(-c2ccccc2NC(=O)c2c(C(F)F)nn(C)c2F)cc1 [compound 131]	4.61	
Cn1nc(C(F)F)c(C(=O)Nc2ccccc2-c2cccc([Si](C)(C)C)c2)c1Cl [compound 132]	5.25	
Cn1nc(C(F)F)c(C(=O)Nc2ccccc2-c2cccc([Si](C)(C)C)c2)c1F [compound 133]	4.83	
Cn1nc(C(F)F)c(C(=O)Nc2ccccc2-c2ccc([Si](C)(C)C)cc2)c1F [compound 134]	4.98	
Cn1nc(C(F)F)c(C(=O)Nc2ccccc2-c2cccc(OC(F)(F)F)c2)c1F [compound 142]	3.83	
Cn1nc(C(F)F)c(C(=O)Nc2ccccc2-c2ccc(OC(F)(F)F)cc2)c1F [compound 145]	3.92	
CC(C)O/N=C/c1ccc(-c2ccccc2NC(=O)c2c(C(F)F)nn(C)c2Cl)cc1 [compound 147]	4.63	
Cn1nc(C(F)F)c(C(=O)Nc2ccccc2OCc2ccccc2)c1Cl [compound 159]	3.99	
Cc1ccccc1Oc1ccccc1NC(=O)c1c(C(F)F)nn(C)c1F [compound 160]	3.96	
Cn1nc(C(F)F)c(C(=O)Nc2ccccc2Sc2ccc(Cl)cc2)c1Cl [compound 165]	4.63	
CCOc1ccc(NC(=O)c2c(C(F)F)nn(C)c2F)cc1OCC [compound 167]	2.54	

Next, values leading:

logP	chromatographic logP (reversed-phase HPLC column (C 18))	Compound
2.82		CC(C)c1ccccc1NC(=O)c1c(C(F)F)nn(C)c1F [compound 1]
3.20		CC(C)=CCc1ccccc1NC(=O)c1c(C(F)F)nn(C)c1F [compound 6]
2.71		C#CCOc1ccccc1NC(=O)c1c(C(F)F)nn(C)c1F [compound 26]
4.08		Cn1nc(C(F)F)c(C(=O)Nc2ccccc2OCC(C)(C)C)c1F [compound 27]
3.08		Cn1nc(C(F)F)c(C(=O)Nc2ccccc2OC(F)(F)C(F)F)c1F [compound 29]
3.31		Cn1nc(C(F)F)c(C(=O)Nc2ccccc2OC(F)(F)C(F)F)c1Cl [compound 30]
3.33		Cn1nc(C(F)F)c(C(=O)Nc2cc(F)ccc2SCC(F)F)c1F [compound 34]
3.37		Cn1nc(C(F)F)c(C(=O)Nc2ccccc2SC(F)(F)F)c1F [compound 36]
3.73		Cn1nc(C(F)F)c(C(=O)Nc2cccc(Cl)c2SCC(F)(F)F)c1F [compound 39]
3.92		Cn1nc(C(F)F)c(C(=O)Nc2cc(Cl)ccc2SCC(F)(F)F)c1F [compound 40]
2.82		Cn1nc(C(F)F)c(C(=O)Nc2ccccc2Br)c1F [compound 43]
2.96		Cn1nc(C(F)F)c(C(=O)Nc2ccccc2C2CC2)c1F [compound 45]
3.23		CC1CCCC(c2ccccc2NC(=O)c2c(C(F)F)nn(C)c2F)C1 (stereo not drawn) [compound 52]
2.77		Cn1nc(C(F)F)c(C(=O)Nc2cccc3c2OC(F)(F)O3)c1F [compound 62]
3.00		Cn1nc(C(F)F)c(C(=O)Nc2cccc3c2OC(F)(F)O3)c1Cl [compound 63]
3.55		Cn1nc(C(F)F)c(C(=O)Nc2ccccc2-c2cc(F)cc(F)c2)c1Cl [compound 92]
4.76		CC(C)c1cccc(-c2ccccc2NC(=O)c2c(C(F)F)nn(C)c2Cl)c1 [compound 95]

logP	chromatographic logP (reversed-phase HPLC column (C 18))	Compound
4.73		Cn1nc(C(F)F)c(C(=O)Nc2ccccc2-c2ccc(C(C)(C)C)cc2)c1F [compound 109]
5.14		Cn1nc(C(F)F)c(C(=O)Nc2ccccc2-c2ccc(C(C)(C)C)cc2)c1Cl [compound 110]
4.36		CC(C)Oc1ccc(-c2ccccc2NC(=O)c2c(C(F)F)nn(C)c2Cl)cc1 [compound 114]
4.01		Cn1nc(C(F)F)c(C(=O)Nc2ccccc2-c2cc(Cl)cc(Cl)c2)c1F [compound 127]
4.31		Cn1nc(C(F)F)c(C(=O)Nc2ccccc2-c2cc(Cl)cc(Cl)c2)c1Cl [compound 128]
4.11		CO/N=C(\C)c1ccc(-c2ccccc2NC(=O)c2c(C(F)F)nn(C)c2Cl)cc1 [compound 130]
4.96		CC(C)COc1ccc(-c2ccccc2NC(=O)c2c(C(F)F)nn(C)c2Cl)cc1 [compound 135]
5.39		Cn1nc(C(F)F)c(C(=O)Nc2ccccc2-c2ccc([Si](C)(C)C)cc2)c1Cl [compound 136]
4.11		Cn1nc(C(F)F)c(C(=O)Nc2ccccc2-c2cccc(OC(F)(F)F)c2)c1Cl [compound 143]
4.19		Cn1nc(C(F)F)c(C(=O)Nc2ccccc2-c2ccc(OC(F)(F)F)cc2)c1Cl [compound 144]
4.31		CC(C)O/N=C/c1ccc(-c2ccccc2NC(=O)c2c(C(F)F)nn(C)c2F)cc1 [compound 146]
5.17		C/C(=N\OC(C)(C)C)c1ccc(-c2ccccc2NC(=O)c2c(C(F)F)nn(C)c2F)cc1 [compound 156]
5.54		C/C(=N\OC(C)(C)C)c1ccc(-c2ccccc2NC(=O)c2c(C(F)F)nn(C)c2Cl)cc1 [compound 157]
3.67		Cn1nc(C(F)F)c(C(=O)Nc2ccccc2OCc2ccccc2)c1F [compound 158]
4.29		Cc1ccccc1Oc1ccccc1NC(=O)c1c(C(F)F)nn(C)c1Cl [compound 161]
4.56		Cn1nc(C(F)F)c(C(=O)Nc2ccccc2OCc2cc(Cl)ccc2Cl)c1F [compound 162]
4.34		Cn1nc(C(F)F)c(C(=O)Nc2ccccc2Sc2ccc(Cl)cc2)c1F [compound 164]
